# In patent publication US20250040541A1, “AN ANTIMICROBIAL LIQUID COMPOSITION, PROCESS FOR PREPARING THE SAME AND METHOD OF USE THEREOF” (ISP Investments LLC, priority 2021, published 2025):
# Legend:
# Type in all cases: cell-based
# [1] = tested on: Gram-negative bacteria (Escherichia coli 8739, Pseudomonas aeruginosa 9027, Burkholderia cepacia 25416); test: 28-day double inoculation challenge test in sunscreen emulsion base, Gram-negative inoculum
# Method: (§1) The test was conducted in sunscreen emulsion base, pH 7 (Table 3).
# (§2) Method: The emulsion was formulated with 2% of the blend #1 or with the appropriate controls, plus water to add up to the 2% of the concentration in the emulsion.
# (§3) Briefly, each tested sample was split into three containers to be challenged, respectively, with either of the three classes of common contaminants: Gram-positive bacteria, Gram-negative bacteria, and fungi. Accordingly, three types of inocula were prepared as outlined in the Table 4. The Gram-positive bacterial inoculum consisted of the single microorganism, while the Gram-negative bacterial inoculum and fungal inoculum, each, consisted of more than one species pooled together (Table 4).
# (§4) The test samples were spiked with the microbial inoculum on days 0 and 21, with the final concentration of bacteria being 10^6 cfu/g and the final concentration of fungi being 10^5 cfu/g. Inoculated samples were incubated at ambient temperature. On days 2, 7, 21 and 28 the samples were plated to recover viable microorganisms. Letheen Agar was used for the recovery of bacteria and on Potato Dextrose Agar was used for the recovery of fungi.
# [2] = tested on: Gram-positive bacteria (Staphylococcus aureus 6538); test: 28-day double inoculation challenge test in sunscreen emulsion base, Gram-positive inoculum
# Method: as §1, §2, §3, §4
# [3] = tested on: Fungi (Candida albicans 10231 and Aspergillus brasiliensis 16404); test: 28-day double inoculation challenge test in sunscreen emulsion base, fungal inoculum
# Method: as §1, §2, §3, §4
# [4] = 0.5% active, […] water in sunscreen emulsion base, pH 6.99, 2 days
# [5] = 0.5% active, […] water in sunscreen emulsion base, pH 6.99, 7 days
# [6] = 0.5% active, […] water in sunscreen emulsion base, pH 6.99, 21 days (before re-inoculation)
# [7] = 0.5% active, […] water in sunscreen emulsion base, pH 6.99, 28 days (7 days after re-inoculation)
# [8] = 0.75% active, 1.25% water in sunscreen emulsion base, pH 7, 2 days
# [9] = 0.75% active, 1.25% water in sunscreen emulsion base, pH 7, 7 days
# [10] = 0.75% active, 1.25% water in sunscreen emulsion base, pH 7, 21 days (before re-inoculation)
# [11] = 0.75% active, 1.25% water in sunscreen emulsion base, pH 7, 28 days (7 days after re-inoculation)
Compound,"plate counts recovered [1, 8]","plate counts recovered [1, 9]","plate counts recovered [1, 10]","plate counts recovered [1, 11]","plate counts recovered [2, 8]","plate counts recovered [2, 9]","plate counts recovered [2, 10]","plate counts recovered [3, 8]","plate counts recovered [3, 9]","plate counts recovered [3, 10]","plate counts recovered [3, 11]",other results
"CC(=O)CCc1ccc(O)cc1 [Raspberry ketone, 4-(4-hydroxyphenyl) butan-2-one]",,,,,,,,,,,,"plate counts recovered [1, 4]: >10^4 cfu/g; plate counts recovered [1, 5]: >10^4 cfu/g; plate counts recovered [1, 6]: 1.3 × 10^3 cfu/g; plate counts recovered [1, 7]: >10^4 cfu/g; plate counts recovered [2, 4]: >10^4 cfu/g; plate counts recovered [2, 5]: <10 cfu/g; plate counts recovered [2, 6]: <10 cfu/g; plate counts recovered [2, 7]: 2.1 × 10^2 cfu/g; plate counts recovered [3, 4]: 2.4 × 10^4 cfu/g; plate counts recovered [3, 5]: 2.40 × 10^4 cfu/g; plate counts recovered [3, 6]: 4.4 × 10^3 cfu/g; plate counts recovered [3, 7]: >10^4 cfu/g"
"OCCCO [1,3-Propanediol]",>10^4 cfu/g,<10 cfu/g,<10 cfu/g,2.00 × 10^2 cfu/g,>10^4 cfu/g,<10 cfu/g,<10 cfu/g,3.40 × 10^4 cfu/g,1.6 × 10^4 cfu/g,9.5 × 10^4 cfu/g,>10^4 cfu/g,
OCCCc1ccccc1 [Phenylpropanol],>10^4 cfu/g,>10^4 cfu/g,6.00 × 10^3 cfu/g,>10^4 cfu/g,>10^4 cfu/g,<10 cfu/g,<10 cfu/g,3.70 × 10^4 cfu/g,1.80 × 10^4 cfu/g,4.00 × 10^3 cfu/g,>10^4 cfu/g,"plate counts recovered [2, 11]: 1.30 × 10^3 cfu/g"
